Results on 1 compound are retold here after PMC3442999, “Characterization of purified and Xerogel immobilized Novel Lignin Peroxidase produced from Trametes versicolor IBL-04 using solid state medium of Corncobs” (BMC Biotechnology, 2012).

The subject of this assay is T1, LiP (lignin peroxidase) of T. versicolor IBL-04.
T1 construct: native secreted enzyme purified from solid-state culture on corncobs (ammonium sulfate, Sephadex G-100, DEAE-cellulose); monomer, 30 kDa on SDS and native PAGE
The experiment in a line: veratryl alcohol oxidation to veratraldehyde at […] nm, Lineweaver-Burk. Conditions: free enzyme; H2O2 co-substrate; incubated 15 min at 25°C in citrate phosphate pH 6.0 before assay; 100-1000 μM substrate. The format is biochemical, Trametes versicolor.

Molecules are shown by their SMILES.

A word on the Km: it is the substrate concentration at which the rate is half of its maximum. Consider `COc1ccc(CO)cc1OC` [veratryl alcohol], for which the Km was 70 µM.
